# Measured values reported in patent US20230165836A1, “ALPHA-2 ADRENERGIC RECEPTOR AGONISTS FOR THE TREATMENT OF CANCER” (UNIVERSITÉ CATHOLIQUE DE LOUVAIN, priority 2020, published 2023).
# “Also recorded” adds a separate entry of the source.
# Legend:
# CT26 colon carcinomas = assay: CT26 colon carcinoma model, daily i.p. treatment, tumor volume; assay type: in vivo, BALB/c mice; conditions: CT26
# Description: Mice received a daily intra-peritoneal injection of guanabenz (5 mg/kg) or vehicle (PBS) from the day of randomization (and the day of ACT when applicable) until the day of sacrifice. For the co-administration of adrenergic receptor agonist and antagonist, BALB/c mice bearing CT26 colon carcinomas received daily injections of vehicle control, guanabenz (5 mg/kg, i.p.), or guanabenz (5 mg/kg, i.p.) plus yohimbine (10 mg/kg, i.p.), when the tumor size was around 50 mm^3, until the day of sacrifice.
# […] mice were injected subcutaneously with 2×10^6 CT26 colon tumor cells at an age of 6 to 8 weeks. […] For evaluation of yohimbine on the effect of clonidine and guanabenz, the mice were randomized into different groups when tumors size arrived around 100 mm^3 and received daily injections of guanabenz (5 mg/kg, i.p.), yohimbine (10 mg/kg), a mix of guanabenz (5 mg/kg, i.p.) and yohimbine (10 mg/kg, i.p.), clonidine (5 mg/kg, i.p.), a mix of clonidine (5 mg/kg, i.p.) and yohimbine (10 mg/kg, i.p.) or vehicle control. Tumor size was measured every 2 days and mice were sacrificed when the tumor in control group reached 1,000 mm^3.
# [1] = test system: immune-resistant autochthonous melanoma tumors (TiRP); assay: TiRP melanoma with adoptive cell transfer (ACT) of P1A-specific CD8+T cells; assay type: in vivo, TiRP mice
# Excerpt: TiRP mice have been created by crossing Ink4a/Are^flox/flox mice with mice carrying a transgenic construct controlled by the tyrosinase promoter and driving the expression of H-Ras ^12V and Trapl a which encodes a MAGE-type tumor antigen P1A; the promoter is separated from the coding region by a stop cassette made of a floxed self-deleting CreER (Huijbers et al., 2006, Cancer Res 66, 3278-3286). Those mice were backcrossed to a B10.D2 background and bred to homozygosity. TCRP1A mice heterozygous for the H-2Ld/P1A35-43-specific TCR transgene were kept on the B10.D2;Rag1^−/− background (Shanker et al., 2004, J Immunol 172, 5069-5077). BALB/c mice were used in tumor transplantation experiments. TiRP-derived T429.11 transplanted melanoma model: T429.11 clone was derived from an induced Amela TiRP tumor referred to as T429. It was cloned from the T429 induced melanoma primary tumor line. Two million of T429.11 tumor cells were injected subcutaneously into recipient mice for tumor establishment (Zhu et al., 2017, Nat Commun. 10; 8(1):1404). Adra2a tm1Bkk mice (Strain Name: B6.129-Adra2a tm1Bkk /J, # 004367) were obtained from Jackson Laboratory (Bar Harbor, Me., USA).
# (§1) A fresh solution of 40H-Tamoxifen was prepared by dissolving 40H-Tamoxifen (Imaginechem®) in 100% ethanol and mineral oil (ratio 1:9) followed by 30 min sonication, and injected subcutaneously (2 mg/200 uL per mouse) in the neck area of gender-matched 7 weeks old TiRP mice. Tumor appearance was monitored daily and tumors were measured three times/week. Tumor volume (in mm^3) was calculated by the following formula: Volume=width^2×length/2.
# For the adoptive cell transfer (ACT), P1A-specific (TCRP1A) CD8+T cells were isolated from spleens and lymph nodes of TCRP1A mice as described hereinabove, and stimulated in vitro by co-culture with irradiated (10,000 rads) L1210.P1A.B7-1 cells (Gajewski et al., 1995, J Immunol 154, 5637-5648) at 1:2 ratio (0.5×10^5 CD8+T cells and 10^5 L1210.P1A.B7-1 cells per well in 48-well plates) in IMDM (GIBCO®) containing 10% fetal bovine serum supplemented with L-arginine (0.55 mM, Merck®), L-asparagine (0.24 mM, Merck®), glutamine (1.5 mM, Merck®), beta-mercaptoethanol (50 μM, Sigma Aldrich®), 50 U mL^−1 penicillin and […] mL^−1 streptomycin (Life Technologies®). Four days later, TCRP1A CD8+T cells were purified on a Lymphoprep gradient (StemCell®) and 10^7 living cells were injected intravenously in 200 μL PBS in TiRP-tumor bearing mice on the day of randomization.
# TiRP-tumor bearing mice received adoptive cell transfer (ACT) of 10^7 P1A-specific activated CD8+T cells and daily injections of vehicle control, clonidine (5 mg/kg, i.p.), or clonidine (5 mg/kg, i.p.) combined with phentolamine (5 mg/kg, i.p.), when the tumor size was around 500 mm^3, until the day of sacrifice. Tumor size was monitored every 2 days. Mice were sacrificed when the tumor in control group reached around 2,000 mm^3.
# TiRP-tumor bearing mice received adoptive cell transfer (ACT) of 10^7 of P1A-specific activated CD8+T cells. Daily injections of 5 mg/kg i.p. of romifidine or clonidine were thus administered from the day of the ACT, when the tumor size was around 500 mm^3, until the day of sacrifice. As shown on FIGS. 5A-B, following romifidine or clonidine administration, tumor infiltration of CD8+T cells was increased. […]
# B16F1 melanoma [2] = assay: B16F1 melanoma in immune deficient mice; assay type: in vivo; conditions: B16F1 in immune deficient NSG mice; 5 mg/kg, i.p.
# Description: (§2) FIGS. 10A-B is a set of curves showing the tumor growth of B16F1 melanoma in C57BL/6J (FIG. 10A) or immunodeficient NSG mice (FIG. 10B) treated with PBS (Control, curve 1) or clonidine (5 mg/kg, i.p., curve 2).
# (§3) FIGS. 11A-B is a set of curves showing the tumor growth of B16F1 melanoma in C57BL/6J (FIG. 11A) or NSG mice (FIG. 11B) treated with PBS (Control, curve 1) or guanfacine (5 mg/kg, i.p., curve 2).
# TiRP melanoma = TiRP melanoma model, monotherapy; assay type: in vivo; conditions: TiRP+/+ mice; 5 mg/kg, i.p. daily from tumor size around 250 mm^3
# Description: FIGS. 14A-B is a set of curves showing the tumor growth (melanoma) in TiRP+/+ mice that have received daily injections of guanfacine (5 mg/kg, i.p. triangles; FIG. 14A), clonidine (5 mg/kg, i.p., circles; FIG. 14B), or control (PBS, i.p., squares), when the tumor size was around 250 mm^3 until sacrifice.
# TiRP mice have been created by crossing Ink4a/Are^flox/flox mice with mice carrying a transgenic construct controlled by the tyrosinase promoter and driving the expression of H-Ras ^12V and Trapl a which encodes a MAGE-type tumor antigen P1A; the promoter is separated from the coding region by a stop cassette made of a floxed self-deleting CreER (Huijbers et al., 2006, Cancer Res 66, 3278-3286). Those mice were backcrossed to a B10.D2 background and bred to homozygosity. TCRP1A mice heterozygous for the H-2Ld/P1A35-43-specific TCR transgene were kept on the B10.D2;Rag1^−/− background (Shanker et al., 2004, J Immunol 172, 5069-5077). […]
# as §1
# B16F1 melanoma [3] = assay: B16F1 melanoma in immune competent mice; assay type: in vivo; conditions: B16F1 in immune competent C57BL/6 mice; 5 mg/kg, i.p.; monotherapy
# Description: as §2, §3
compound,measurement,setting,value
Cc1ccc(N(CC2=NCCN2)c2cccc(O)c2)cc1 [Phentolamine],effect of co-administered antagonist on the inhibition of tumor growth by clonidine,"CT26 colon carcinomas; clonidine 5 mg/kg i.p. plus phentolamine 5 mg/kg, propranolol 5 mg/kg or yohimbine 10 mg/kg i.p. daily",attenuated the inhibitory effect
same,effect of co-administered antagonist on the inhibition of tumor growth by guanabenz,CT26 colon carcinomas; guanabenz 5 mg/kg i.p. plus phentolamine 5 mg/kg or yohimbine 10 mg/kg i.p. daily,attenuated the inhibitory effect
same,effect of phentolamine on the inhibition of TiRP tumor growth by clonidine,"[1]; ACT, clonidine 5 mg/kg i.p. plus phentolamine 5 mg/kg i.p. daily",attenuated the inhibitory effect of clonidine on TiRP tumor growth
N=C(N)NC(=O)Cc1c(Cl)cccc1Cl [guanfacine],tumor growth,B16F1 melanoma [2],No tumor inhibition was found
same,"tumor volume, monotherapy",TiRP melanoma,efficient in decreasing the tumor volume
same,tumor growth,B16F1 melanoma [3],inhibited tumor growth
same,"tumor growth, combined with ACT","[1]; TiRP mice, ACT of 10^7 P1A-specific CD8+T cells, 5 mg/kg i.p. daily",inhibited the tumor growth
Fc1cccc(Br)c1NC1=NCCN1 [romifidine],tumor infiltration of CD8+T cells (%CD8+T cells among total CD45+T cells),"[1]; TiRP mice with ACT, 5 mg/kg i.p. daily from day of ACT, tumor size around 500 mm^3, 5 mg/kg",increase of tumor infiltration of CD8+T cells; also recorded: increased
